Values of other authors as cited in US20060062853A1 (Medical Research Institute, priority 2004, published 2006).

How the values were obtained:
[1] = not given; remark: listed apart in the source
[2] = such as juices

- creatine lost from the cell (70 kg male): approximately 2 grams per day
- loss of creatine from skeletal muscle (skeletal muscle): about 3 % per day
- half-life in blood plasma [1]: 1 to 1.5 h
- stability in acidic solutions [2]: not stable
Compound: CN(CC(=O)O)C(=N)N [creatine, N-(aminoiminomethyl)-N-methylglycine]
